This is an account of results in patent US20110152221A1, “PAK1 Agonists and Methods of Use” (THE BOARD OF TRUSTEES OF THE UNIVERSITY OF ILLINOIS, priority 2008, published 2011).

The target in series [1] is T1, Pak1 purified from cardiac muscle (Bos taurus, UniProt Q08E52).
T1 construct: from tissue; host or cells: bovine ventricle (cardiac) muscle
The experiment in a line: Pak1 kinase assay (autophosphorylation, [γ32P] ATP, autoradiography). Particulars: for autophosphorylation of Pak1: concentration not given. The class given is biochemical, bovine. The method, then:
Preparation of Muscle Sample. Frozen bovine ventricle muscle (200 g) was cut into small pieces and homogenized in a blender containing 1 liter homogenization buffer (50 mM Tris base, 5 mM EDTA, 2 mM EGTA, 1 mM DTT, 0.5 mM benzamidine, 0.1 mM PMSF, pH 7.2). The homogenized muscle sample was centrifuged at 4500 g for 30 minutes. The supernatant fraction was saved and precipitated with ammonium sulfate (NH4)2SO4 at concentration 25% and 50% (w/v). Precipitates formed by (NH4)2SO4 addition between concentration 25% (w/v) and 50% (w/v) were saved and dialyzed against the homogenization buffer. After dialysis, the sample was filtered and lyophilized. For purification of Pak1 from smaller amounts of sample, the tissues or cells were homogenized in mammalian extraction buffer (50 mM Tris, pH 7.5; 150 mM NaCl; 0.1% Nonide P40; Complete Protease inhibitor cocktail tablets [Roche Diagnostics, cat # 11 873 580 001]). The ratio of tissue:buffer was about 1:5 (v/v). The homogenate was centrifuged in a bench-top centrifuge at 4° C. The supernatant fraction was saved for direct application onto the affinity column.
Affinity Chromatography. The column was first washed with 20 ml equilibration buffer (20 mM Tris, pH 7.5; 0.1 M NaCl; 0.1 mM EDTA). Decoy peptide (3 mg) was applied to the column to saturate the matrix with the peptide. The muscle sample (the lyophilized extract) was dissolved in buffer (20 mM Tris, pH 7.5; 0.1 M NaCl; 0.1 mM EDTA) containing protease inhibitor cocktail tablets. The sample was loaded onto the affinity column and then washed with 20 ml washing buffer (20 mM Tris, pH 7.5; 0.1 M NaCl; 0.1 mM EDTA; 0.05% Tween-20). The Pak1 bound to the gel was eluted with equilibration buffer containing HA peptide ([…]) (SEQ ID NO: 2) at 1 mg/ml. HA peptide was removed from the sample by dialysis in buffer containing 20 mM HEPES, 5 mM NaCl, pH 7.2. The bound Pak1 could also be eluted with 5 ml glycine buffer, pH 2.5 (50 mM glycine-HCl; 0.1% Triton X-100; 0.15 M NaCl).
Kinase Assay. Pak1 kinase activity was assayed in the following reaction buffer: 50 mM HEPES, pH 7.3, 10 mM MgCl2, 1 mM DTT, 0.05% Triton X-100) with 10 μCi of [γ32P] ATP (Perkin Elma. [γ-32P]-Adenosine 5′-triphosphate, Specific Activity: 3000 Ci (111TBq)/mmole, 50 mM Tricine (pH 7.6), Concentration: 5 mCi/mL, Catal NEG502H250UC) at 37° C. for 2 h. The kinase reaction was stopped by adding SDS sample buffer followed by boiling for 5 min. In view of reports of sphingosine-1 inducing an increase in Pak1 and Pak2 activity in vitro (Bokoch 1998, p 8137-8144; Roig 2001, p 195-199), the effect of sphingosine and sphingosine-1 phosphate on Pak1 autophosphorylation was also tested (FIG. 3A). The tested agonists (obtained from Calbiochem) included the following: C2 ceramide (N-acetyl-D-erythro-sphingosine), C6 ceramide (N-Hexanoyl-D-erythro-sphingosine) and safingol (Dihydro-L-threo-sphingosine). D-sphingosine (S 6879) and sphingosine 1-phosphate (S 9666) were purchased from Sigma. Sphingosines were dissolved in DMSO. The total reaction volume was 20 μl. DMSO (2 μl) was included in each reaction including the control. Incorporation of 32P from gamma 32P into Pak1 was directly detected by autoradiography after resolve the in vitro reaction products on SDS PAGE. […] When the sphingosine phosphate concentration increased to 100 and 200 μM, there was an increase in Pak1 autophosphorylation. In purified Pak1 sample, a 48 kD Pak1 degradation products can sometimes be detected (FIG. 1A, lane 3). When Pak1 activity increased, phosphorylation of the degradation products increased accordingly (FIG. 3).
Autophosphorylation of Pak1, which correlates with its activity, provided a measure of Pak-1 enzyme function. […] In all the in vitro assays, we used 4 μg of Pak1 protein. The smaller band (˜48 kD) that could be Pak1 degradation products was also phosphorylated. […] The decoy peptide contains Pak1 autophosphorylation sites. […]

For another series, the system named is T-cells. Particulars: O'Byrne 2000; cited from earlier work.
In another series the test system is L-type Ca2+ channel. Particulars: different types of cells; Chik 1999, 2004; cited from earlier work.
The subject of series [2] is cardiac troponin in cardiomyocytes / ventricle myocytes. The series is described as follows: Dephosphorylation of cardiac troponin in cardiomyocytes. The class given is cell-based. An excerpt: FTY720 is a structural analogue of sphingosine-1 and C2/C6-ceramide. […] Therefore, like C2- and C6-ceramides, FTY720 can serve as a β-blocker competitor for ischemic heart diseases including angina and systolic heart failure. The anti-(β) adrenergic effect of FTY720 is through activation of Pak1 in the heart. Our current observation further enforced by our previous work on Pak1 function related to heart diseases. Our studies also indicate that even better drug candidates can be designed or screened by testing their effects on Pak1 activation or inhibition using C2/C6 ceramides and FTY720 as prototypes.

For a further series, the system named is PP2A. Particulars: Dobrowsky 1993; cited from earlier work.
The next series concerns heart. Particulars: Furuya 2001; Lecour 2006; cited from earlier work.
The next series concerns heart rate. To be noted: same or lower dose than used in clinical studies for organ transplantation and multiple sclerosis; cited from earlier work.
In series [3] the target is T2, decoy peptide (YNSKKTSNSQKYMSFTDKSA) (amino acids 131-150 of SEQ ID NO: 1).
T2 chain: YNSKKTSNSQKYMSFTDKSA

T1 sequence (Q08E52 whole entry): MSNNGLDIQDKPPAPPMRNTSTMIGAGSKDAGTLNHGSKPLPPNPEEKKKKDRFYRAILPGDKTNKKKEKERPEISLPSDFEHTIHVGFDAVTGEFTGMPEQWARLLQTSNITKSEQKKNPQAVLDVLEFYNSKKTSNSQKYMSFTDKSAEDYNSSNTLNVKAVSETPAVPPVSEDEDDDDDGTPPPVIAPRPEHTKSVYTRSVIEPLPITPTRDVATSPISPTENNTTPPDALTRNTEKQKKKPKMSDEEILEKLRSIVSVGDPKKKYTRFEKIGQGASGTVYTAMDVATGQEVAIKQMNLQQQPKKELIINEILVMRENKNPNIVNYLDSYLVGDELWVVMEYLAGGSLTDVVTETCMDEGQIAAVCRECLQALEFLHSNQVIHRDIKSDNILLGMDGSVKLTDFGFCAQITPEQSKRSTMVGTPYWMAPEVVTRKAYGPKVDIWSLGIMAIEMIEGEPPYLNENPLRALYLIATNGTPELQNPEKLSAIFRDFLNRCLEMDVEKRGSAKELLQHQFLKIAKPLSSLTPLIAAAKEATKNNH

As to `CCCCCCCCCCCCC/C=C/[C@@H](O)[C@H](CO)NC(C)=O` [C2 ceramide, N-acetyl-D-erythro-sphingosine], in series [1], the “effect activating Pak1 compared with sphingosine-1” value is “stronger effect than sphingosine-1”. The “autophosphorylation of Pak1” value in series [1] (37° C., 2 h) is “highly responsive”. In addition, the “proliferation of T-cells stimulated by growth signals” value in the series with T-cells was “inhibited proliferation”. The “L-type Ca2+ channel activity” value in the series with L-type Ca2+ channel is given as “depressed”. Further, the “dephosphorylation of cardiac troponin in cardiomyocytes” value in series [2] is “induces dephosphorylation”. Also, the PP2A activation result in the series with PP2A is listed as “known activator”. Besides, in the series on heart, the “pre-conditioning effects in heart” value is on record as “pre-conditioning effects”.

As to `CCCCCCCCCCCCCCC[C@H](O)[C@@H](N)CO` [saphingol, Dihydro-L-threo-sphingosine], the “autophosphorylation of Pak1” value in series [1] (37° C., 2 h) is reported as “only slightly regulated”; in series [1] (37° C., 2 h, listed as Saphingosine) it was “small stimulatory effect”.

For the molecule `CCCCCCCCCCCCC/C=C/[C@@H](O)[C@@H](N)CO` [D-Sphingosine-1, D-erythro-sphingosine], in series [1] (in the presence of 50 and 100 μM, 37° C., 2 h), the “Autophosphorylation of the purified Pak1” value is given as “increased”.

Turning to `CCCCCCCCCCCCC/C=C/[C@@H](O)[C@H](CO)NC(=O)CCCCC` [C6 ceramide, N-Hexanoyl-D-erythro-sphingosine], the “effect activating Pak1 compared with sphingosine-1” value in series [1] is listed as “stronger effect than sphingosine-1”. Also, the “autophosphorylation of Pak1” value in series [1] (37° C., 2 h) was “highly responsive”. Moreover, the “dephosphorylation of cardiac troponin in cardiomyocytes” value in series [2] was “induces dephosphorylation”.

On to YNSKKTSNSQKYMSFTDKSA [decoy peptide], for which the “autophosphorylation of Pak1” value in series [1] (37° C., 2 h) is listed as “slightly inhibited”. Also, the “total kinase activity in the presence of the decoy peptide” value in series [1] (data not shown) was “slight increase”.

Consider `CCCCCCCCc1ccc(CCC(N)(CO)CO)cc1` [FTY720, fingolimod], for which the “cardiac effect (heart rate)” value with heart rate is on record as “decrease of heart rate”.

With `CCCCCCCCCCCCC/C=C/[C@@H](O)[C@@H](N)COP(=O)(O)O` [sphingosine-1 phosphate, sphingosine 1-phosphate], in series [1] (at 25 and 50 μM, 37° C., 2 h), the “effect on autophosphorylation of Pak1” value is on record as “no significant effect”. In addition, the Pak1 autophosphorylation entry in series [1] (at 100 and 200 μM, 37° C., 2 h) is “increase”.

B1: Pak1 purified from bovine ventricle muscle (p21 activated kinase-1) (protein)
chain: SNNGLDIQDKPPAPPMRNTSTMIGAGSKDAGTLNHGSKPLPPNPEEKKKKDRFYRAILPGDKTNKKKEKERPEISLPSDFEHTIHVGFDAVTGEFTGMPEQWARLLQTSNITKSEQKKNPQAVLDVLEFYNSKKTSNSQKYMSFTDKSAEDYNSSNTLNVKAVSETPAVPPVSEDEDDDDDGTPPPVIAPRPEHTKSVYTRSVIEPLPITPTRDVATSPISPTENNTTPPDALTRNTEKQKKKPKMSDEEILEKLRSIVSVGDPKKKYTRFEKIGQGASGTVYTAMDVATGQEVAIKQMNLQQQPKKELIINEILVMRENKNPNIVNYLDSYLVGDELWVVMEYLAGGSLTDVVTETCMDEGQIAAVCRECLQALEFLHSNQVIHRDIKSDNILLGMDGSVKLTDFGFCAQITPEQSKRSTMVGTPYWMAPEVVTRKAYGPKVDIWSLGIMAIEMIEGEPPYLNENPLRALYLIATNGTPELQNPEKLSAIFRDFLNRCLEMDVEKRGSAKELLQHQFLKIAKPLSSLTPLIAAAKEATKNNH
On to B1, for which, in series [3], the “autophosphorylation of Pak1” value was “The decoy peptide slightly inhibited autophosphorylation of Pak1”.
